Test results as given in paper PMC9653409, “Generative deep learning enables the discovery of a potent and selective RIPK1 inhibitor” (Nature Communications, 2022).
Like-named read-outs stand apart in the source and are kept apart here.

How the values were obtained:
Assay in all cases: Kinase inhibitory activity profiling of RI-962@10 µM (406 kinases, Eurofins)
Format in all cases: biochemical
[1] = target: panel of human kinases (kinase named in endpoint) (Homo sapiens, UniProt Q96RR4); conditions: 10 µM; read-out: Activity (%), CaMKK2(h)
Outline: (§1)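 Radiometric filter-binding kinase assays: enzyme preincubated 15 min with compound in 8 mM MOPS pH 7.0, 0.2 mM EDTA, 250 μM peptide substrate, 10 mM magnesium acetate, 10 μM [γ-33P]-ATP. Reaction started with Mg/ATP, run 40 min at room temperature, stopped with phosphoric acid; 33P incorporation read by scintillation counting. Other kinases by similar protocols.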

[2] = target: panel of human kinases (kinase named in endpoint) (Homo sapiens, UniProt P07949, V804L); conditions: 10 µM; read-out: Activity (%), Ret (V804L)(h)
Sequence of panel of human kinases (kinase named in endpoint) (Homo sapiens, UniProt P07949, V804L) (P07949 29-1114 V804L): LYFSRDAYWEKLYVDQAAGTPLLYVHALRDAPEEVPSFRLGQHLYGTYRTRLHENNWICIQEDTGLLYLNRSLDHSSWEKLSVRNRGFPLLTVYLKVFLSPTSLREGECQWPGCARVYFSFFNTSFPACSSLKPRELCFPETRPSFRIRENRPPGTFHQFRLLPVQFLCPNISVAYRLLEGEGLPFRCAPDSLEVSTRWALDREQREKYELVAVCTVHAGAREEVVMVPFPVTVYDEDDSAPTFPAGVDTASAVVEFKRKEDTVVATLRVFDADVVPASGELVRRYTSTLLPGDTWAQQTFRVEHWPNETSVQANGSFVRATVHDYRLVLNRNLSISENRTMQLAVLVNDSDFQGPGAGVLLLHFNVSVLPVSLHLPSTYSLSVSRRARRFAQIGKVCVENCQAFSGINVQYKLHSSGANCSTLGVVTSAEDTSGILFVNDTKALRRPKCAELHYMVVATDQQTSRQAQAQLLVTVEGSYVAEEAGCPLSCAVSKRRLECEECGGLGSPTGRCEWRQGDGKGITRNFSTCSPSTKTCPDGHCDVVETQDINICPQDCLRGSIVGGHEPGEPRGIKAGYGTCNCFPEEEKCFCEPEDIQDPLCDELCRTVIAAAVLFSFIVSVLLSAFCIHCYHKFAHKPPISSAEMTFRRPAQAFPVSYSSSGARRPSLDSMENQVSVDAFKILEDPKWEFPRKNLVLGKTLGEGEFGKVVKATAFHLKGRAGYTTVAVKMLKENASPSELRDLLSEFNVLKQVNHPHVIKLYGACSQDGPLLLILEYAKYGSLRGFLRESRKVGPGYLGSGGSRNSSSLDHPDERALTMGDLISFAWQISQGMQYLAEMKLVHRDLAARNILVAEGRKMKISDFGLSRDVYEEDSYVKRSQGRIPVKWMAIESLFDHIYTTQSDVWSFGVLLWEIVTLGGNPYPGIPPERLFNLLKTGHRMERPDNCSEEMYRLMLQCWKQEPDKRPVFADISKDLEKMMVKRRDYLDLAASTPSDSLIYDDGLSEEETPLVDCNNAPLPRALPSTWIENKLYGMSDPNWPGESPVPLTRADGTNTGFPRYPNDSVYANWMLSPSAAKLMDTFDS
Outline: as §1

[3] = target: panel of human kinases (kinase named in endpoint) (Homo sapiens, UniProt P42336); conditions: 10 µM
Sequence of panel of human kinases (kinase named in endpoint) (Homo sapiens, UniProt P42336) (P42336 whole entry): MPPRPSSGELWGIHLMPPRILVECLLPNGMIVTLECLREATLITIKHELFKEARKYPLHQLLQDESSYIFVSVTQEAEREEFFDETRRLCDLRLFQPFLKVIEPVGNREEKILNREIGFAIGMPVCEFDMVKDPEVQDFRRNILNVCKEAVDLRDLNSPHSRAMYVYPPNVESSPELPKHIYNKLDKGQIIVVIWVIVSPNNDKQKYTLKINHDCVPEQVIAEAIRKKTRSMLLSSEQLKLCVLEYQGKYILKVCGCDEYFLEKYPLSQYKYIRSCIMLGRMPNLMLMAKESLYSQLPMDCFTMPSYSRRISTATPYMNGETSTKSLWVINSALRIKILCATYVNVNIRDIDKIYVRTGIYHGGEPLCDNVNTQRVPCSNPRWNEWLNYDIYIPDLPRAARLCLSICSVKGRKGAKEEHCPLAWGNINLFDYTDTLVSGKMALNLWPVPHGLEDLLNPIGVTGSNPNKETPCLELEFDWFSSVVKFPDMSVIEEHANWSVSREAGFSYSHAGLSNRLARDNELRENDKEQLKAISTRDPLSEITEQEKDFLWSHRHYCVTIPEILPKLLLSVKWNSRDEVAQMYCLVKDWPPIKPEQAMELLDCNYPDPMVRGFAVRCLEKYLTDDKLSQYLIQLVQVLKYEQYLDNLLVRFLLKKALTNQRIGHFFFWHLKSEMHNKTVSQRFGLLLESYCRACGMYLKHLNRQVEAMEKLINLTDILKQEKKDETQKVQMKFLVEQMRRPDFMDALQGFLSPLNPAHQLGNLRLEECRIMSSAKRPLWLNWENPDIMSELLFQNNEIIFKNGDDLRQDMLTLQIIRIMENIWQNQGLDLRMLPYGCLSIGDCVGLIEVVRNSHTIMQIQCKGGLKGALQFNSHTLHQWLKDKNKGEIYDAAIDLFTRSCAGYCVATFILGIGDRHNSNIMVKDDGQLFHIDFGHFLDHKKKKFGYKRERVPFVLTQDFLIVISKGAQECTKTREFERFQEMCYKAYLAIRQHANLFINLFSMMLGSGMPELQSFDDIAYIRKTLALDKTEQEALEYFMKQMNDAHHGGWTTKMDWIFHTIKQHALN
Outline: as §1

[4] = target: panel of human kinases (kinase named in endpoint) (Homo sapiens, UniProt P09619); conditions: 10 µM; read-out: Activity (%), PDGFRβ(h)
Outline: as §1

[5] = target: panel of human kinases (kinase named in endpoint) (Homo sapiens, UniProt P35916); conditions: 10 µM; read-out: Activity (%), Flt4(h)
Outline: as §1

[6] = target: panel of human kinases (kinase named in endpoint) (Homo sapiens, UniProt P68400); conditions: 10 µM
Sequence of panel of human kinases (kinase named in endpoint) (Homo sapiens, UniProt P68400) (P68400 whole entry): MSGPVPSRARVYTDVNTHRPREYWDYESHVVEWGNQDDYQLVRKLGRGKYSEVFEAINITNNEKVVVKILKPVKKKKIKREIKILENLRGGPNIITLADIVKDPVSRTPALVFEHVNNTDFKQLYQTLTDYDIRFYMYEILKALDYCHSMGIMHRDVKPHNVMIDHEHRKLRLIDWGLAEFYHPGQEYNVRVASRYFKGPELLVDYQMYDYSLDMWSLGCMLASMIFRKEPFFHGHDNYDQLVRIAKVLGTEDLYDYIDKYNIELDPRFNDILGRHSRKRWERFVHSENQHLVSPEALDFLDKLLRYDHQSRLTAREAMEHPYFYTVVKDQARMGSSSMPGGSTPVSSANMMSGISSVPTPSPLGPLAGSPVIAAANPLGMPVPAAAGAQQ
Outline: as §1

[7] = target: panel of human kinases (kinase named in endpoint) (Homo sapiens, UniProt Q9P1W9); conditions: 10 µM; read-out: Activity (%), Pim-2(h)
Outline: as §1

[8] = target: panel of human kinases (kinase named in endpoint) (Homo sapiens, UniProt P51955); conditions: 10 µM; read-out: Activity (%), NEK2(h)
Outline: as §1

[9] = target: panel of human kinases (kinase named in endpoint) (Homo sapiens, UniProt P54762); conditions: 10 µM; read-out: Activity (%), EphB1(h)
Outline: as §1

[10] = target: panel of human kinases (kinase named in endpoint) (Homo sapiens, UniProt Q16620); conditions: 10 µM; read-out: Activity (%), TrkB(h)
Outline: as §1

[11] = target: panel of human kinases (kinase named in endpoint) (Homo sapiens, UniProt P00533, L858R); conditions: 10 µM; read-out: Activity (%), EGFR(L858R)(h)
Outline: as §1

[12] = target: panel of human kinases (kinase named in endpoint) (Homo sapiens, UniProt Q8IU85); conditions: 10 µM; read-out: Activity (%), CaMKIδ(h)
Outline: as §1

[13] = target: panel of human kinases (kinase named in endpoint) (Homo sapiens, UniProt Q16539, T106M); conditions: 10 µM; read-out: Activity (%), SAPK2a(T106M)(h)
Sequence of panel of human kinases (kinase named in endpoint) (Homo sapiens, UniProt Q16539, T106M) (Q16539 whole entry T106M): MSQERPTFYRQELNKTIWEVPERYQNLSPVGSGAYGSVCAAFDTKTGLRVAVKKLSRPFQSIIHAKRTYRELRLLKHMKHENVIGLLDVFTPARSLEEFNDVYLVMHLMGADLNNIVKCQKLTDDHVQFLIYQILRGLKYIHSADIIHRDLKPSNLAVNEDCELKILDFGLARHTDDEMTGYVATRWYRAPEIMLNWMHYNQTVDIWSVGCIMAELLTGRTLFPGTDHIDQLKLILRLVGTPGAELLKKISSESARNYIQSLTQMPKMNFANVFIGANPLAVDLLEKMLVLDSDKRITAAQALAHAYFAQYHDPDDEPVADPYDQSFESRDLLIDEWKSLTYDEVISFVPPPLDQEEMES
Outline: as §1

[14] = target: panel of human kinases (kinase named in endpoint) (Homo sapiens, UniProt Q13535); conditions: 10 µM; read-out: Activity (%), ATR/ATRIP(h)
Outline: as §1

[15] = target: panel of human kinases (kinase named in endpoint) (Homo sapiens, UniProt P48736); conditions: 10 µM; read-out: Activity (%), PI3 Kinase (p120g)(h)
Outline: as §1

[16] = target: panel of human kinases (kinase named in endpoint) (Homo sapiens, UniProt P06239); conditions: 10 µM
Sequence of panel of human kinases (kinase named in endpoint) (Homo sapiens, UniProt P06239) (P06239 whole entry): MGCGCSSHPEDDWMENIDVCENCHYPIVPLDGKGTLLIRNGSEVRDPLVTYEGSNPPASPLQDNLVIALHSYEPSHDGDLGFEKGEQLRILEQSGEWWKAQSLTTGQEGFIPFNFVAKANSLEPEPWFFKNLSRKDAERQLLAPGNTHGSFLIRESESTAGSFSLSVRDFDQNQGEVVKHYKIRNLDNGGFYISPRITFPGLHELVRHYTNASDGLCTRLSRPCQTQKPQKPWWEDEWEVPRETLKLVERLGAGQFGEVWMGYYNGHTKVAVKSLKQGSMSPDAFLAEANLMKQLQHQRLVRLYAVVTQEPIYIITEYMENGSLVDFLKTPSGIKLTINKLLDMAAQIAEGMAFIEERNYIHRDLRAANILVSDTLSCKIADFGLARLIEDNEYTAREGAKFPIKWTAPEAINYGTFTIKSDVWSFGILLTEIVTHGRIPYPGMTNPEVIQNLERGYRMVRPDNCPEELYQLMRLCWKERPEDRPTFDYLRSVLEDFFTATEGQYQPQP
Outline: as §1

[17] = target: panel of human kinases (kinase named in endpoint) (Homo sapiens, UniProt Q2M2I8); conditions: 10 µM; read-out: Activity (%), AAK1(h)
Sequence of panel of human kinases (kinase named in endpoint) (Homo sapiens, UniProt Q2M2I8) (Q2M2I8 whole entry): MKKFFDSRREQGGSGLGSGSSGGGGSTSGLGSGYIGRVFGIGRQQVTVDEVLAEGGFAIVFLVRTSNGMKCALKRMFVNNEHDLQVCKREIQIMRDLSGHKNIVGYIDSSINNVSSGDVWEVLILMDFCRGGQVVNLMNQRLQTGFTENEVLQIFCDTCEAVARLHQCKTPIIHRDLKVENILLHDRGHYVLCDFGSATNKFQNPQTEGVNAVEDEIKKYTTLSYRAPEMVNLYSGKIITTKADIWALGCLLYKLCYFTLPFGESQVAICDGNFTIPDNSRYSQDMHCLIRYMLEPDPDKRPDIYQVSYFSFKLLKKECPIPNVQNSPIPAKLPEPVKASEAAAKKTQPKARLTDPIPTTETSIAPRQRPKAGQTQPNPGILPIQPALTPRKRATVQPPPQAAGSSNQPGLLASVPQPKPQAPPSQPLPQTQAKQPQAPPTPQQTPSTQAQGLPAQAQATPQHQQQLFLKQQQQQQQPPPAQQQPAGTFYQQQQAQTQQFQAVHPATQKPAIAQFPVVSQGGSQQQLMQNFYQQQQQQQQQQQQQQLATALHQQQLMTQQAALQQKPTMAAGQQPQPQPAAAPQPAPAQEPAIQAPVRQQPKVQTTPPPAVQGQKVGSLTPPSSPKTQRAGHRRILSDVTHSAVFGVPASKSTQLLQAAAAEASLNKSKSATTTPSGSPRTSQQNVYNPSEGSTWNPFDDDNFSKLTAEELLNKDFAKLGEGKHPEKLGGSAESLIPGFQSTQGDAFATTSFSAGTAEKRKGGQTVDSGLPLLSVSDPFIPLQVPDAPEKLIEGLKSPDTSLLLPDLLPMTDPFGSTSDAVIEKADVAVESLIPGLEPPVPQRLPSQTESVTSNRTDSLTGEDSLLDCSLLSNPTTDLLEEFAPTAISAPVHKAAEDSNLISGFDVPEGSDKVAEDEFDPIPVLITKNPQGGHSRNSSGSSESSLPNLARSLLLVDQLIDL
Outline: as §1

[18] = target: panel of human kinases (kinase named in endpoint) (Homo sapiens, UniProt Q8NE63); conditions: 10 µM; read-out: Activity (%), HIPK4(h)
Sequence of panel of human kinases (kinase named in endpoint) (Homo sapiens, UniProt Q8NE63) (Q8NE63 whole entry): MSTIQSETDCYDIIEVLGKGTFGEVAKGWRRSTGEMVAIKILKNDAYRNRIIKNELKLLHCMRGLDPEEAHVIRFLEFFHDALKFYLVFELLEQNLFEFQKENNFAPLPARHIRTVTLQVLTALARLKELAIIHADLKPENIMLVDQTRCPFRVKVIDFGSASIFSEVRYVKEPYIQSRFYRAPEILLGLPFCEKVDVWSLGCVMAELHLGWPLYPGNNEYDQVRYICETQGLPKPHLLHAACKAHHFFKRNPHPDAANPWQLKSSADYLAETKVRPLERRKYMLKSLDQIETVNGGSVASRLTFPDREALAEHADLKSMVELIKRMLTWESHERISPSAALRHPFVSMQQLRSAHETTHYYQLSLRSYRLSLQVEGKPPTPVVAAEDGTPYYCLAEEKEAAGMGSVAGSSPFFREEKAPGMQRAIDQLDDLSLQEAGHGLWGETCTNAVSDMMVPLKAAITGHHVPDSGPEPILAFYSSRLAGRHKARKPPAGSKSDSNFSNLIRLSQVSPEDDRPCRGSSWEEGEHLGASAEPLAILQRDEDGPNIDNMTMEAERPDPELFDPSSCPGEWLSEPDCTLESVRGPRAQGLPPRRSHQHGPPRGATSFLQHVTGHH
Outline: as §1

[19] = target: panel of human kinases (kinase named in endpoint) (Homo sapiens, UniProt P05771); conditions: 10 µM; read-out: Activity (%), PKCβI(h)
Outline: as §1

[20] = target: panel of human kinases (kinase named in endpoint) (Homo sapiens, UniProt Q9NSY1); conditions: 10 µM; read-out: Activity (%), BIKe(h)
Outline: as §1

[21] = target: panel of human kinases (kinase named in endpoint) (Homo sapiens, UniProt P00533, L861Q); conditions: 10 µM; read-out: Activity (%), EGFR(L861Q)(h)
Outline: as §1

[22] = target: panel of human kinases (kinase named in endpoint) (Homo sapiens, UniProt P51956); conditions: 10 µM; read-out: Activity (%), NEK3(h)
Outline: as §1

[23] = target: panel of human kinases (kinase named in endpoint) (Homo sapiens, UniProt P28482); conditions: 10 µM; read-out: Activity (%), MAPK2(h)
Outline: as §1

[24] = target: panel of human kinases (kinase named in endpoint) (Homo sapiens, UniProt P48426); conditions: 10 µM; read-out: Activity (%), PIP4K2a(h)
Outline: as §1

[25] = target: panel of human kinases (kinase named in endpoint) (Homo sapiens, UniProt Q00534); conditions: 10 µM; read-out: Activity (%), CDK6/cyclinD3(h)
Outline: as §1

CC(C)C(=O)Nc1nc2cc(-c3ccc4c(c3)c(C(=O)NC(C)c3ccccc3)cn4C)ccn2n1 (stereo not shown) [RI-962]
activity at 10 µM [1]: 81% | activity at 10 µM [2]: 103% | activity at 10 µM ([3]; read-out: Activity (%), PI3 Kinase (p110a/p65a)(h)): 97% | activity at 10 µM ([3]; read-out: Activity (%), PI3 Kinase (p110a/p85a)(h)): 94% | activity at 10 µM [4]: 107% | activity at 10 µM [5]: 86% | activity at 10 µM ([6]; read-out: Activity (%), CK2(h)): 91% | activity at 10 µM ([6]; read-out: Activity (%), CK2α1(h)): 94% | activity at 10 µM [7]: 97% | activity at 10 µM [8]: 100% | activity at 10 µM [9]: 111% | activity at 10 µM [10]: 126% | activity at 10 µM [11]: 93% | activity at 10 µM [12]: 104% | activity at 10 µM [13]: 86% | activity at 10 µM [14]: 108% | activity at 10 µM [15]: 80% | activity at 10 µM ([16]; read-out: Activity (%), Lck(h)): 137% | activity at 10 µM ([16]; read-out: Activity (%), Lck(h) activated): 81% | activity at 10 µM [17]: 106% | activity at 10 µM [18]: 71% | activity at 10 µM [19]: 120% | activity at 10 µM [20]: 60% | activity at 10 µM [21]: 82% | activity at 10 µM [22]: 103% | activity at 10 µM [23]: 90% | activity at 10 µM [24]: 98% | activity at 10 µM [25]: 92%
